In US20050288503A1, “Novel compounds” (priority 2002, published 2005):

Molecular target: CSBP/p38 (Homo sapiens, UniProt Q16539)
Assay: CSBP/p38 Kinase Assay (32P transfer from ATP to EGFR-derived T669 peptide)
Format: biochemical
Details: retested at 67 uM

Sequence of CSBP/p38 (Q16539 whole entry): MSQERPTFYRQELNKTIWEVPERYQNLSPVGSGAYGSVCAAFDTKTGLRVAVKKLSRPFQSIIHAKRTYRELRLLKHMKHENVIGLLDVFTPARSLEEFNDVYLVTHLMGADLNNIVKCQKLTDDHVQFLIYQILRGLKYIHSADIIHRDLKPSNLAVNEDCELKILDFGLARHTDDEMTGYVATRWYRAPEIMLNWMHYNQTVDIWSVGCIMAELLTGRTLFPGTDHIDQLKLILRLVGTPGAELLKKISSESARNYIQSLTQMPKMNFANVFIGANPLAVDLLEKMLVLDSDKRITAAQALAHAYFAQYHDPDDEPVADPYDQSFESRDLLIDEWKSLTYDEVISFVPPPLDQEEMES

| activity on retesting at a higher concentration | Compound |
| --- | --- |
| active | Cn1cnc2c(N(C(N)=O)c3c(F)cccc3F)nc(-c3ccc(Cl)cc3)nc21 [Example 35, 1-[2-(4-chloro-phenyl)-9-methyl-9H-purin-6-yl]-1-(2,6-difluoro-phenyl)-urea] |
| active | Cn1cnc2c(N(C(N)=O)c3c(F)cccc3F)nc(-c3cc(F)cc(F)c3)nc21 [Example 46, 1-(2,6-difluoro-phenyl)-1-[2-(3,5-difluoro-phenyl)-9-methyl-9H-purin-6-yl]-urea] |

Same assay, conditions: yeast-expressed, activated and purified p38; 0.17 mM ATP; T669 peptide; read-out: positive inhibitory activity in the CSBP/p38 kinase assay at

| Compound | IC50 [µM] |
| --- | --- |
| Cc1ccc(-c2nc(Nc3c(F)cccc3F)c3ncn(C)c3n2)cc1 [Example 14, (2,6-difluoro-phenyl)-(9-methyl-2-p-tolyl-9H-purin-6-yl)-amine] | < 50 |
| CN(C)CCn1cnc2c(Nc3c(F)cccc3F)nc(-c3ccccc3F)nc21 [Example 22, (2,6-difluoro-phenyl)-[9-(2-dimethylamino-ethyl)-2-(2-fluoro-phenyl)-9H-purin-6-yl]-amine] | < 50 |

Other lines, results leading:

| IC50 [µM] | Compound |
| --- | --- |
| < 50 | Fc1ccccc1-c1nc(Nc2c(F)cccc2F)c2ncn(Cc3ccccc3)c2n1 [Example 23] |
| < 50 | Cn1cnc2c(Nc3c(F)cccc3F)nc(-c3ccccc3Cl)nc21 [Example 11, [2-(2-chloro-phenyl)-9-methyl-9H-purin-6-yl]-(2,6-difluoro-phenyl)-amine] |
| < 50 | Cn1cnc2c(Nc3c(F)cccc3F)nc(-c3ccc(F)cc3F)nc21 [Example 19, (2,6-difluoro-phenyl)-[2-(2,4-difluoro-phenyl)-9-methyl-9H-purin-6 yl]-amine] |
| < 50 | Cn1cnc2c(Nc3c(F)cccc3F)nc(-c3ccccc3F)nc21 [Example 17, (2,6-difluoro-phenyl)-[2-(2-fluoro-phenyl)-9-methyl-9H-purin-6-yl]-amine] |
